Experimental data from ChEMBL document CHEMBL4613308, “Screen of Unfocused Libraries Identified Compounds with Direct or Synergistic Antibacterial Activity” (ACS Med Chem Lett, 2020).
Converted amounts (≈) assume the structure as drawn.

How the values were obtained:
Klebsiella pneumoniae [1] = experiment: Antibacterial activity against Klebsiella pneumoniae ATCC 13833 assessed as bacterial growth inhibition by agar diffusion assay; assay type: functional
Pseudomonas aeruginosa [2] = experiment: Antibacterial activity against Pseudomonas aeruginosa ATCC 27853 assessed as bacterial growth inhibition by agar diffusion assay; assay type: functional
Pseudomonas aeruginosa [3] = experiment: Synergistic antibacterial activity against Pseudomonas aeruginosa ATCC 27853 in presence of 0.5 times MIC of colistin by microdilution broth method; assay type: functional
Acinetobacter baumannii [4] = experiment: Synergistic antibacterial activity against multidrug-resistant Acinetobacter baumannii N50 in presence of 2 ug/ml colistin by microdilution broth method; assay type: functional
Klebsiella pneumoniae [5] = experiment: Potentiation of colistin-induced antibacterial activity against Klebsiella pneumoniae ATCC 13833 assessed as fold reduction in colistin MIC by microdilution broth method relative to colistin MIC; assay type: functional
Acinetobacter baumannii [6] = experiment: Synergistic antibacterial activity against multidrug-resistant Acinetobacter baumannii N50 assessed as fractional inhibitory concentration index in presence of colistin by checkerboard assay; assay type: functional
Escherichia coli [7] = experiment: Synergistic antibacterial activity against Escherichia coli CCUG in presence of 0.5 times MIC of colistin by microdilution broth method; assay type: functional
Acinetobacter baumannii [8] = experiment: Antibacterial activity against Acinetobacter baumannii ATCC 17978 assessed as bacterial growth inhibition by agar diffusion assay; assay type: functional
Klebsiella pneumoniae [9] = experiment: Synergistic antibacterial activity against Klebsiella pneumoniae ATCC 13833 in presence of 0.5 times MIC of colistin by microdilution broth method; assay type: functional
Pseudomonas aeruginosa [10] = experiment: Synergistic antibacterial activity against Pseudomonas aeruginosa ATCC 27853 assessed as fractional inhibitory concentration index in presence of colistin by Checkerboard assay; assay type: functional
Pseudomonas aeruginosa [11] = experiment: Potentiation of colistin-induced antibacterial activity against Pseudomonas aeruginosa ATCC 27853 assessed as fold reduction in colistin MIC by microdilution broth method relative to colistin MIC; assay type: functional
HeLa = experiment: Cytotoxicity against human HeLa cells assessed as reduction in cell viability assay by CellTox-Green assay; assay type: cell-based
Acinetobacter baumannii [12] = experiment: Synergistic antibacterial activity against Acinetobacter baumannii ATCC 17978 assessed as fractional inhibitory concentration index in presence of colistin by Checkerboard assay; assay type: functional
Acinetobacter baumannii [13] = experiment: Synergistic antibacterial activity against Acinetobacter baumannii ATCC 17978 in presence of 0.5 times MIC of colistin by microdilution broth method; assay type: functional
Escherichia coli [14] = experiment: Potentiation of colistin-induced antibacterial activity against Escherichia coli CCUG assessed as fold reduction in colistin MIC in by microdilution broth method relative to colistin MIC; assay type: functional
Klebsiella pneumoniae [15] = experiment: Synergistic antibacterial activity against colistin-resistant Klebsiella pneumoniae SI-081R clinical isolate in presence of 2 ug/ml colistin by microdilution broth method (reference value: 256 ug/ml); assay type: functional
Acinetobacter baumannii [16] = experiment: Potentiation of colistin-induced antibacterial activity against Acinetobacter baumannii ATCC 17978 assessed as fold reduction in colistin MIC by microdilution broth method relative to colistin MIC; assay type: functional
Escherichia coli [17] = experiment: Antibacterial activity against Escherichia coli CCUG assessed as bacterial growth inhibition by agar diffusion assay; assay type: functional
Klebsiella pneumoniae [18] = experiment: Synergistic antibacterial activity against colistin-resistant Klebsiella pneumoniae SI-004Bo clinical isolate in presence of 2 ug/ml colistin by microdilution broth method (reference value: 64 ug/ml); assay type: functional
Enterobacter cloacae [19] = experiment: Antibacterial activity against multidrug-resistant Enterobacter cloacae VA 417/02 clinical isolate assessed as bacterial growth inhibition by agar diffusion assay; assay type: functional
Enterobacter cloacae [20] = experiment: Antibacterial activity against multidrug-resistant Enterobacter cloacae Z19 clinical isolate assessed as bacterial growth inhibition by agar diffusion assay; assay type: functional
Escherichia coli [21] = experiment: Antibacterial activity against multidrug-resistant Escherichia coli Z25 clinical isolate assessed as bacterial growth inhibition by agar diffusion assay; assay type: functional
Streptococcus pyogenes = experiment: Antibacterial activity against Streptococcus pyogenes ATCC 12344 assessed as bacterial growth inhibition by agar diffusion assay; assay type: functional
Escherichia coli [22] = experiment: Synergistic antibacterial activity against Escherichia coli CCUG assessed as fractional inhibitory concentration index in presence of colistin by Checkerboard assay; assay type: functional
Enterococcus faecalis = experiment: Antibacterial activity against Enterococcus faecalis ATCC 29212 assessed as bacterial growth inhibition by agar diffusion assay; assay type: functional
Staphylococcus aureus = experiment: Antibacterial activity against Staphylococcus aureus ATCC 25923 assessed as bacterial growth inhibition by agar diffusion assay; assay type: functional
Bacillus spizizenii = experiment: Antibacterial activity against Bacillus subtilis ATCC 6633 assessed as bacterial growth inhibition by agar diffusion assay; assay type: functional
Acinetobacter baumannii [23] = experiment: Antibacterial activity against Acinetobacter baumannii AC-54/97 clinical isolate assessed as bacterial growth inhibition by agar diffusion assay; assay type: functional
Pseudomonas aeruginosa [24] = experiment: Antibacterial activity against multidrug-resistant Pseudomonas aeruginosa VR-143/97 clinical isolate assessed as bacterial growth inhibition by agar diffusion assay; assay type: functional

CCCCCc1cc(O)cc(OCCCCCCCCCCC(=O)NCCO)c1
MIC (Klebsiella pneumoniae [1]): > 512 µg/mL
MIC (Pseudomonas aeruginosa [2]): > 512 µg/mL
MIC (Pseudomonas aeruginosa [3]): 2 µg/mL
MIC (Acinetobacter baumannii [4]): 2 µg/mL
log2FC (Klebsiella pneumoniae [5]): 7
fractional inhibitory concentration index (FICI) (Acinetobacter baumannii [6]): 0.062
MIC (Escherichia coli [7]): 8 µg/mL
MIC (Acinetobacter baumannii [8]): > 512 µg/mL
MIC (Klebsiella pneumoniae [9]): 4 µg/mL
fractional inhibitory concentration index (FICI) (Pseudomonas aeruginosa [10]): 0.41
log2FC (Pseudomonas aeruginosa [11]): 8
IC50 (HeLa): 25 µg/mL (≈ 61.3 µM)
fractional inhibitory concentration index (FICI) (Acinetobacter baumannii [12]): 0.29
MIC (Acinetobacter baumannii [13]): 2 µg/mL
log2FC (Escherichia coli [14]): 6
MIC (Klebsiella pneumoniae [15]): > 64 µg/mL
log2FC (Acinetobacter baumannii [16]): 8
MIC (Escherichia coli [17]): > 512 µg/mL
MIC (Klebsiella pneumoniae [18]): > 64 µg/mL

COc1ccc(CNC(=O)c2c(O)c3cc(-c4cccnc4)ccc3n(CCCCO)c2=O)cc1
MIC (Enterobacter cloacae [19]): 64 µg/mL (≈ 135 µM)
MIC (Klebsiella pneumoniae [1]): 32 µg/mL (≈ 67.6 µM)
MIC (Pseudomonas aeruginosa [2]): 256 µg/mL (≈ 541 µM)
MIC (Enterobacter cloacae [20]): > 256 µg/mL
MIC (Escherichia coli [21]): > 256 µg/mL
log2FC (Klebsiella pneumoniae [5]): 3
MIC (Escherichia coli [7]): 32 µg/mL
MIC (Streptococcus pyogenes): 8 µg/mL (≈ 16.9 µM)
MIC (Acinetobacter baumannii [8]): 16 µg/mL (≈ 33.8 µM)
fractional inhibitory concentration index (FICI) (Escherichia coli [22]): 0.56
MIC (Enterococcus faecalis): 16 µg/mL (≈ 33.8 µM)
MIC (Staphylococcus aureus): 4 µg/mL (≈ 8.45 µM)
MIC (Klebsiella pneumoniae [9]): 64 µg/mL
MIC (Bacillus spizizenii): 0.12 µg/mL (≈ 0.253 µM)
MIC (Acinetobacter baumannii [13]): 16 µg/mL
log2FC (Escherichia coli [14]): 4
log2FC (Acinetobacter baumannii [16]): 5
MIC (Escherichia coli [17]): 64 µg/mL (≈ 135 µM)
MIC (Acinetobacter baumannii [23]): > 256 µg/mL
MIC (Pseudomonas aeruginosa [24]): > 256 µg/mL
